Results on 2 molecules are retold here after patent US20110118275A1, “OXAZOLO[4,5-c]PYRIDINE SUBSTITUTED PYRAZINE” (ASTRAZENECA AB, priority 2009, published 2011).

Data set [1] addresses T1, recombinant human GSK3β (Homo sapiens, UniProt P49841).
T1 construct: purchased Dundee University, UK
Nature of the data set: Determination of GSK3β activity in Scintillation Proximity Assay. The class given is biochemical. The settings on record: Km of ATP 3 μM used to calculate Ki; 1 μmol/L ATP; read-out: mean GSKβ Ki value. The procedure: Determination of GSK3β activity in Scintillation Proximity Assay.
The inhibition experiments were carried out in duplicate with 10 concentrations of the inhibitor in 384 well clear-bottom microtitre plates. A biotinylated peptide substrate (Biotin-Ala-Ala-Glu-Glu-Leu-Asp-Ser-Arg-Ala-Gly-Ser(PO3H2)-Pro-Gln-Leu (AstraZeneca, Lund)), was added at a final concentration of 1 μmol/L in an assay buffer (pH 7.0) containing 0.6 mU recombinant human GSK3β (Dundee University, UK), (˜5 nmol/L active enzyme), 10 mmol/L morpholinepropanesulfonic acid (MOPS), 0.3 mmol/L EDTA, 0.01% (v/v) (3-mercaptoethanol, 0.003% (w/v) polyethylene 23 lauryl ether (Brij 35), 0.4% glycerol and 0.02 mg bovine serum albumine (BSA) and preincubated for 10 minutes. The reaction was initiated by the addition of 0.06 μCi [γ-33P]ATP (Amersham, UK) and unlabelled ATP in 30 mmol/L Mg(Ac)2 to a final concentration of 1 μmol/L ATP. The final assay volume was 15 μL. Blank controls without peptide substrate were used. After incubation for 15 min at room temperature, the reaction was terminated by the to addition of stop solution containing 1.3 mmol/L EDTA, 13 μmol/L ATP, 0.02% Triton™X-100 and 0.15 mg streptavidin coated SPA beads. After a 5 minutes centrifugation at 2000 rpm, the radioactivity was measured in a liquid scintillation counter (1450 MicroBeta Trilux, Perkin Elmer, Finnland). […]

The target of data set [2] is T2, recombinant Axl tyrosine kinase (Homo sapiens, UniProt P30530).
T2 construct: GST (N); made in house; host or cells: SF126 insect cells
T2 sequence (P30530 473-894): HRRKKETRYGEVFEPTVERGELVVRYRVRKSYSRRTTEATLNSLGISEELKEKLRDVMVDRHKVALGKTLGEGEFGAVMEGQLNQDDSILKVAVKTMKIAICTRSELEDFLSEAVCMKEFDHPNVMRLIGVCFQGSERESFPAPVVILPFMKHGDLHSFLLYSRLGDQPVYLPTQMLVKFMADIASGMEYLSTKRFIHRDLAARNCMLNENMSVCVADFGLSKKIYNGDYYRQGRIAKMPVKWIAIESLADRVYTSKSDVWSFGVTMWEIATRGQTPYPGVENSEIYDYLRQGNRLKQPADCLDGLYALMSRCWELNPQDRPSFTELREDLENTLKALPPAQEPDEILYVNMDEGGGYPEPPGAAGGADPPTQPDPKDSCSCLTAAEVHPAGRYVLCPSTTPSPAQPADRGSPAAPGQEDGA
Nature of the data set: In vitro Axl kinase assay (AlphaScreen). The class given is biochemical. The settings on record: Ki calculated from IC50, Km for ATP 0.2 μM. An excerpt: Determination of the In Vitro Axl Kinase Assay.
The following assays can be used to measure the effects of the compounds of the present invention as inhibitors of Axl tyrosine kinase enzyme, as inhibitors in vitro of the phosphorylation of Axl expressed on NCI H1299 lung large cell carcinoma cells. The assay used AlphaScreen technology (Gray et al., Analytical Biochemistry, 2003, 313: 234-245) to determine the ability of test compounds to inhibit phosphorylation by recombinant Axl tyrosine kinase.
N-terminal GST-Axl kinase domain encompassing amino acids 473 to 894 of Axl (GenBank Accession No NM_021913) was expressed in […] insect cells and purified using the GST epitope tag, using standard purification techniques.
Test compounds were prepared as 10 mM stock solutions in dimethylsulphoxide (DMSO) and diluted in DMSO as required. […]
Each reaction was stopped by the addition of 5 μl of a mixture of 500 mM EDTA, 3 mg/ml bovine serum albumin (BSA) and 20 mM Tris-HCl pH 7.4 buffer containing 40 ng/μl AlphaScreen Streptavidin donor and anti-p-Tyr-100 acceptor beads (Perkin Elmer, Catalogue No. 6760620M). The resultant signals arising from laser light excitation at 680 nm were read using a Packard Envision instrument. […]

Data set [3] is described as follows: Hygroscopicity by Dynamic Vapor Sorption (DVS). The class given is physicochemical. The settings on record: 25° C. The procedure: Description of the Dynamic Vapor Sorption (DVS) Method Used
The weight change over time as a function of relative humidity (RH) at 25° C. was measured in a DVS Advantage, equipped with a SMS ultrabalance using DVS Advantage Control Software Version 1.2.0.21, from Surface Measurement Systems, London, UK.
Carrier gas was nitrogen 200 ml/minute. The sample amount was circa 10 mg. The equilibrium criteria, for each step, was set to 0.002%/minute with DMDT Window 5 minutes, DMDT Min Time 10 minutes and DMDT Max Time 360 minutes as defined in the Control Software. DMDT uses the percentage rate of change of mass with time (dm/dt) to determine whether a sample has come to equilibrium.
DMDT Window (min): The time window, over which a straight line is fitted to the mass data in order to calculate a value of dm/dt.
DMDT Min Time (min): The time that the measured dm/dt must satisfy the specified dm/dt criteria before switching to the next Method Stage.
DMDT Max Time (min): The maximum time a Method Stage will run in dm/dt mode before switching to the next Method Stage—regardless of whether the dm/dt criterion has been satisfied.
The sample was initially dried at 0% RH and the water vapor sorption was measured as weight gain after stepwise increase to 10, 20, 30, 40, 50, 60, 70, 80, 90 and 95% relative humidity. After stepwise drying using the same relative humidities in reverse order down to 0% RH a second sorption curve was obtained.

T1 sequence (P49841 whole entry): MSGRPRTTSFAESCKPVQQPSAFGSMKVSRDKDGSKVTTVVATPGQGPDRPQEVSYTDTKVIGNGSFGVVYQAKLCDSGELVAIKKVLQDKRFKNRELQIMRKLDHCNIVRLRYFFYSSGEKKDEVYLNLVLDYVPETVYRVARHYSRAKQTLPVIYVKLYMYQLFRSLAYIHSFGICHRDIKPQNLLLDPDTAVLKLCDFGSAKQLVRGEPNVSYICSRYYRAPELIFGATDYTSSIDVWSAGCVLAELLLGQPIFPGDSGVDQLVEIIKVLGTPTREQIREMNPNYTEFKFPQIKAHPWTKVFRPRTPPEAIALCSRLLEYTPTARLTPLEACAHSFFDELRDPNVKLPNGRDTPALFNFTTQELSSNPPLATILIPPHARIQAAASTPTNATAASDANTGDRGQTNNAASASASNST

Regarding `CN1CCN(C(=O)c2ccc(-c3cnc(N)c(-c4nc5cnccc5o4)n3)cc2)CC1` [Example 1, (4-(5-Amino-6-(oxazolo[4,5-c]pyridin-2-yl)pyrazin-2-yl)phenyl)(4-methylpiperazin-1-yl)methanone], the inhibition constant Ki is 2.3 nM in data set [1] and 113 nM in data set [2]. In addition, the Average weight gain in data set [3] (0% RH) was found to be 0.0%; in data set [3] (10% RH), 0.1%; in data set [3] (20% RH), 2.4%; in data set [3] (30% RH), 3.1%; in data set [3] (60% RH) it was 4.7%; in data set [3] (90% RH), 9.2%. The “Weight gain calculated as molar equivalents of water” value in data set [3] (0% RH) is recorded as 0.0 molar equivalents of water; in data set [3] (10% RH), 0.0 molar equivalents of water; in data set [3] (20% RH) it was 0.5 molar equivalents of water; in data set [3] (30% RH), 0.7 molar equivalents of water; in data set [3] (60% RH) it was 1.1 molar equivalents of water; in data set [3] (90% RH), 2.1 molar equivalents of water. In addition, the “Weight gain first sorption curve” value is recorded as 0.00% in data set [3] (0% RH); 0.12% in data set [3] (10% RH); 2.34% in data set [3] (20% RH); 3.09% in data set [3] (30% RH); 4.72% in data set [3] (60% RH); 9.16% in data set [3] (90% RH). For the same molecule, the “Weight gain second sorption curve” value in data set [3] (0% RH) is 0.00%; in data set [3] (10% RH), 0.14%; in data set [3] (20% RH) it was 2.41%; in data set [3] (30% RH), 3.14%; in data set [3] (60% RH) it was 4.65%; in data set [3] (90% RH) it was 9.19%.
On to `Nc1ncc(-c2ccc(C(=O)N3CCNCC3)cc2)nc1-c1nc2cnccc2o1` [Example 14, (4-(5-Amino-6-(oxazolo[4,5-c]pyridin-2-yl)pyrazin-2-yl)phenyl)(piperazin-1-yl)methanone], for which the inhibition constant Ki in data set [1] is 3.2 nM.

For orientation: Ki means the equilibrium dissociation constant of an inhibitor or competing ligand from its target.
